# Results as given in patent US8877754B2, “Compounds, pharmaceutical compositions and uses thereof” (Boehringer Ingelheim International GmbH, priority 2010, dated 2014).
# Target: T1, human ACC2 (Homo sapiens, UniProt O00763)
# T1 construct: made in house; host or cells: insect cells, baculoviral expression system
# Assay: ACC2 assay, spectrophotometric 384 well assay (NADH-linked, coupled lactate dehydrogenase/pyruvate kinase)
# Type: biochemical
# Details: hACC2 construct lacking the 128 N-terminal amino acids; 25° C., 340 nm, 15 minutes
# Protocol: Spectrophotometric 384 Well Assay
# Malonyl CoA formation by acetyl CoA carboxylases is stoichometrically linked to the consumption of ATP. ACC2 activity is measured in a NADH-linked kinetic method measuring ADP generated during the ACC reaction using a coupled lactate dehydrogenase/pyruvate kinase reaction.
# For biological testing, a human ACC2 construct which lacks the 128 amino acids at the N-terminus for increased solubility (nt 385-6966 in Genbank entry AJ575592) is cloned. The protein is then expressed in insect cells using a baculoviral expression system. Protein purification is performed by anion exchange.
# All compounds are dissolved in dimethyl sulfoxide (DMSO) to a concentration of 10 mM.
# Assay reactions are then carried out in 384-well plates, with hACC2 in an appropriate dilution and at final assay concentrations (f.c.) of 100 mM Tris (pH 7.5), 10 mM trisodium citrate, 25 mM KHCO3, 10 mM MgCl2, 0.5 mg/mL BSA, 3.75 mM reduced L-glutathione, 15 U/mL lactate dehydrogenase, 0.5 mM phosphoenolpyruvate, 15 U/mL pyruvate kinase, compounds at different concentrations at final DMSO concentrations of 1%.
# The enzymatic reaction is then started by addition of a mixture of NADH, acetyl Coenzyme A (both 200 μM f.c.) and ATP (500 uM f.c.). The decrease of the optical density (slope S) is then determined at 25° C. at a wavelength of 340 nm over 15 minutes in a spectrophotometric reader.
# Each assay microtiter plate contains wells with vehicle instead of compound as controls for the non-inhibited enzyme (100% CTL; ‘HIGH’) and wells without acetyl-CoA as controls for non-specific NADH degradation (0% CTL; ‘LOW’). The slope S is used for calculation of % CTL=(S(compound)−S(‘LOW’))/(S(‘HIGH’)—S(‘LOW’))*100. Compounds will give values between 100% CTL (no inhibition) and 0% CTL (complete inhibition).
# For IC50 value determination, the sample slope in the presence of the test compound after subtraction of the low controls (S(compound)−S(‘LOW’)) are used.
# An IC50 value is derived from the compound slopes at different dosages after subtraction of the low controls (S(compound)−S(‘LOW’)) by non-linear regression curve fitting (equation y=(A+((B−A)/(1+((C/x)^D))))).
# T1 sequence (O00763 129-2458 limits assumed): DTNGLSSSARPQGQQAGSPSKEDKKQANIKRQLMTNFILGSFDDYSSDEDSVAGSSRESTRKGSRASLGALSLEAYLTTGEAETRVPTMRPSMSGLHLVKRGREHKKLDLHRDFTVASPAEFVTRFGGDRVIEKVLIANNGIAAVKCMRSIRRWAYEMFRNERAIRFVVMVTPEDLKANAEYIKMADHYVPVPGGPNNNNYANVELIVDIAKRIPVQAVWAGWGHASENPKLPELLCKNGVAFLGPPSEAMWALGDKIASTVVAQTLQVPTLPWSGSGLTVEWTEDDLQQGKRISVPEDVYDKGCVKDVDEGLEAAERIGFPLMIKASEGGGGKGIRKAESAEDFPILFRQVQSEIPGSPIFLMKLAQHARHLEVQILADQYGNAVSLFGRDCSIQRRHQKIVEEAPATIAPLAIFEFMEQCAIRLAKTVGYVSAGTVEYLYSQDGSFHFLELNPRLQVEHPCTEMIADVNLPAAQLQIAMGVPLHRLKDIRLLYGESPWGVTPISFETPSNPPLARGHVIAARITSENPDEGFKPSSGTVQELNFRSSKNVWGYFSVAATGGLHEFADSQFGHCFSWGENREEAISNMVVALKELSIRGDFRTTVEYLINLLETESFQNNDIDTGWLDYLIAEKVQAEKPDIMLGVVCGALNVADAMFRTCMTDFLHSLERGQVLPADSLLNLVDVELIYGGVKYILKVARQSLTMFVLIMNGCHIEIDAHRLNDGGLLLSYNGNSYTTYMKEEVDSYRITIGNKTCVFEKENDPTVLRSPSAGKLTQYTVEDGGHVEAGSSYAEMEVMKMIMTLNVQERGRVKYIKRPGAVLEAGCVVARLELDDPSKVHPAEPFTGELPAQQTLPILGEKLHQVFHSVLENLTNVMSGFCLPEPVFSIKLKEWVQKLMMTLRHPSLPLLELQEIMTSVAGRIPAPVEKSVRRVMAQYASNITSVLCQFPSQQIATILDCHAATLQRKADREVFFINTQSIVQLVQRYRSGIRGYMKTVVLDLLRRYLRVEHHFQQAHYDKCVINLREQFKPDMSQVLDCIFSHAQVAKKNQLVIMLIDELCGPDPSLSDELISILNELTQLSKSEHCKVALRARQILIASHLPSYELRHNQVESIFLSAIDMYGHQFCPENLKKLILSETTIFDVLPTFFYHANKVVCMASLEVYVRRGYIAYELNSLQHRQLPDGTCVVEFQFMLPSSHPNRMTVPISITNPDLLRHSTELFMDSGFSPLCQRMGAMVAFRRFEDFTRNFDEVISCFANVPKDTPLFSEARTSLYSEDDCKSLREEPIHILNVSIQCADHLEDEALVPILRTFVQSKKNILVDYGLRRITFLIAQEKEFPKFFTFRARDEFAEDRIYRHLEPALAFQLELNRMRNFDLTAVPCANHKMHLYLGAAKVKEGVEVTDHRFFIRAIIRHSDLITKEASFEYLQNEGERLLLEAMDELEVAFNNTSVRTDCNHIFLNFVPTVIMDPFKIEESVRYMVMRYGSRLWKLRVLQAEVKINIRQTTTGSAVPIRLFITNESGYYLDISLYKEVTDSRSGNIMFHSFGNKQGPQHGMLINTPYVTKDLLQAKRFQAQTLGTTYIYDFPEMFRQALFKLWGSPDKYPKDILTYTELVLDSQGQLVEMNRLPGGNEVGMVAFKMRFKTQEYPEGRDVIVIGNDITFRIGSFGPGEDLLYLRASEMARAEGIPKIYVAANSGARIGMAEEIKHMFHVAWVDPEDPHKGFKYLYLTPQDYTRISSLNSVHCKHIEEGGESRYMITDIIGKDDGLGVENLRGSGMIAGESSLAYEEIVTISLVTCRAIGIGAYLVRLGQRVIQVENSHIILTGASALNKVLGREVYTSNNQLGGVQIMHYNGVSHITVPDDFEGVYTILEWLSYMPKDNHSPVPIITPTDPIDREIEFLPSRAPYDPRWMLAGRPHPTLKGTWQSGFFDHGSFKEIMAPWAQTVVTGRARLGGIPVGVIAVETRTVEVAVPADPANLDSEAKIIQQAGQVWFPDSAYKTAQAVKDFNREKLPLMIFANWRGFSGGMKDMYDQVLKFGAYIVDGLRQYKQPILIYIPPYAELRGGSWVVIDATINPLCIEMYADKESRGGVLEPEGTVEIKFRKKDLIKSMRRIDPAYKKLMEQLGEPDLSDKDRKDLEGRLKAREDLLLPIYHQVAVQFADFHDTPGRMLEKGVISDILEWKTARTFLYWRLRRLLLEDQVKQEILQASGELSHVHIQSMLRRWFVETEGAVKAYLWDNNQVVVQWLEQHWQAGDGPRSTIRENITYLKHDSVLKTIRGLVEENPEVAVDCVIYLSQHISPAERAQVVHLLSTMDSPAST
row,Structure (SMILES),IC50
1,CCOc1ccc(C#Cc2ccc(C(C)C(=O)NCc3ccn(C)n3)cc2)cc1 (stereo not shown) [Example 6.22],1500 nM
2,"CCOc1ccc(C#Cc2ccc(C(C)C(=O)Nc3cc(C)nn3C)cc2)cc1 (stereo not shown) [Example 6.1, N-(2,5-Dimethyl-2H-pyrazol-3-yl)-2-[4-(4-ethoxy-phenylethynyl)-phenyl]-propionamide]",230 nM
3,CCOc1ccc(C#Cc2ccc(C(C)C(=O)Nc3cc(C)[nH]n3)cc2)cc1 (stereo not shown) [Example 6.21],25500 nM
4,CCOc1ccc(C#Cc2ccc(C(C)C(=O)NC)cc2)cc1 (stereo not shown) [Example 1.3],220 nM
5,CCOc1ccc(C#Cc2ccc(CC(=O)NC3CC3)cc2)cc1 [Example 1.23],1000 nM
6,CCOc1ccc(C#Cc2ccc(C(C)C(=O)Nc3ccncn3)cc2)cc1 (stereo not shown) [Example 6.2],520 nM
7,CCCOc1ccc(C#Cc2ccc(C(C)C(=O)NCC)cc2)c(OC)c1 (stereo not shown) [Example 7.41],510 nM
8,CCOc1ccc(C#Cc2ccc(CC(=O)NC)cc2)cc1 [Example 1.6],5400 nM
9,CCOc1ccc(C#Cc2ccc(C(C)C(=O)NCCOC)cc2)cc1 (stereo not shown) [Example 1.12],9700 nM
10,CCOc1ccc(C#Cc2ccc(C(C)C(=O)Nc3ccnn3C)cc2)cc1 (stereo not shown) [Example 6.10],190 nM
11,CCOc1ccc(C#Cc2ccc(C(C)C(N)=O)cc2)cc1 (stereo not shown) [Example 1.9],220 nM
12,CCOc1ccc(C#Cc2ccc(C(C)C(=O)Nc3nncs3)cc2)cc1 (stereo not shown) [Example 6.23],23100 nM
13,CCCNC(=O)C(C)c1ccc(C#Cc2ccc(OCC)cc2)cc1 (stereo not shown) [Example 1.16],610 nM
14,CCOc1ccc(C#Cc2ccc(C(C)C(=O)NC(C)CC)cc2)cc1 (stereo not shown) [Example 1.13],2800 nM
15,CCCOc1ccc(C#Cc2ccc(C(C)C(=O)NCC)cc2)c(C#N)c1 (stereo not shown) [Example 7.39],1200 nM
16,CCOc1ccc(C#Cc2ccc(C(C)C(=O)NC(C)C)cc2)cc1 (stereo not shown) [Example 1.20],13200 nM
17,CCOc1ccc(C#Cc2ccc(C(C)C(=O)NC3CCOC3)cc2)cc1 (stereo not shown) [Example 6.9],1800 nM
18,CCOc1ccc(C#Cc2ccc(CC(=O)N(C)C)cc2)cc1 [Example 1.21],30000 nM
19,CCCCn1ccc(C#Cc2ccc(C(C)C(=O)NCC)cc2)cc1=O (stereo not shown) [Example 7.35],2100 nM
20,CCOc1ccc(C#Cc2ccc(CC(C)C(=O)NC3CC3)cc2)cc1 (stereo not shown) [Example 1.25],730 nM
21,CCOc1ccc(C#Cc2ccc(C(C)C(=O)NCc3ccno3)cc2)cc1 (stereo not shown) [Example 6.18],18700 nM
22,CCOc1ccc(C#Cc2ccc(C(C)C(=O)Nc3ccccc3)cc2)cc1 (stereo not shown) [Example 1.15],80 nM
23,CCNC(=O)C(C)c1ccc(C#Cc2ccc(C(=O)Cn3cnc(C)c3)cc2)cc1 (stereo not shown) [Example 7.21],22500 nM
24,CCCOc1ccc(C#Cc2ccc(C(C)C(=O)NCC)cc2)c(C)c1 (stereo not shown) [Example 7.42],90 nM
25,CCOc1ccc(C#Cc2ccc(C(C)C(=O)Nc3ccnn3CC)cc2)cc1 (stereo not shown) [Example 6.11],840 nM
26,CCOc1ccc(C#Cc2ccc(C(C)C(=O)Nc3ncco3)cc2)cc1 (stereo not shown) [Example 6.7],3300 nM
27,CCOc1ccc(C#Cc2ccc(C(C)C(=O)Nc3ncccn3)cc2)cc1 (stereo not shown) [Example 6.15],290 nM
28,CCOc1ccc(C#Cc2ccc(C(C)C(=O)Nc3ccn[nH]3)cc2)cc1 (stereo not shown) [Example 6.6],3600 nM
29,CCOc1ccc(C#Cc2ccc(C(C)C(=O)NC3COC3)cc2)cc1 (stereo not shown) [Example 6.8],620 nM

# Results, then the compound that gave them:
row,IC50,Structure (SMILES)
1,2900 nM,CCNC(=O)C(C)c1ccc(C#Cc2ccnc(Oc3cncnc3)c2)cc1 (stereo not shown) [Example 7.38]
2,4500 nM,CCOc1ccc(C#Cc2ccc(C(C)C(=O)NCc3ncn[nH]3)cc2)cc1 (stereo not shown) [Example 6.19]
3,260 nM,"CCNC(=O)C(C)c1ccc(C#Cc2ccc(OC)cc2)cc1 (stereo not shown) [Example 4.1, N-Ethyl-2-[4-(4-methoxy-phenylethynyl)-phenyl]-propionamide]"
4,400 nM,CCNC(=O)C(C)c1ccc(C#Cc2cnc(OC3CCC3)nc2)cc1 (stereo not shown) [Example 3.2]
5,920 nM,CCNC(=O)C(C)c1ccc(C#Cc2cnc(Oc3ccccc3)nc2)cc1 (stereo not shown) [Example 3.3]
6,25700 nM,CCNC(=O)C(C)c1ccc(C#Cc2ccc(OC)c(OC)c2)cc1 (stereo not shown) [Example 7.48]
7,2500 nM,CCNC(=O)C(C)c1ccc(C#Cc2cnc(NCCF)nc2)cc1 (stereo not shown) [Example 2.9]
8,360 nM,CCNC(=O)C(C)c1ccc(C#Cc2ccc(OC(C)(C)C)cc2)cc1 (stereo not shown) [Example 7.17]
9,3200 nM,CCCCOc1ccc(C#Cc2ccc(C(C)C(=O)NCC)cc2)nn1 (stereo not shown) [Example 7.37]
10,250 nM,CCNC(=O)C(C)c1ccc(C#Cc2ccnc(OCC)c2)cc1 (stereo not shown) [Example 7.9]
11,3700 nM,CCNC(=O)C(C)c1ccc(C#Cc2cnc(N3CCC3)nc2)cc1 (stereo not shown) [Example 2.7]
12,390 nM,CCNC(=O)C(C)c1ccc(C#Cc2ccnc(Oc3ccccc3)c2)cc1 (stereo not shown) [Example 7.45]
13,120 nM,CCOc1ccc(C#Cc2ccc(C(C)C(=O)NC3CC3)cc2)cc1 (stereo not shown) [Example 1.17]
14,270 nM,CCNC(=O)C(C)c1ccc(C#Cc2cnc(N3CC4CCCC4C3)nc2)cc1 (stereo not shown) [Example 2.11]
15,150 nM,CCNC(=O)C(C)c1ccc(C#Cc2ccc(OCC3CC3)cc2)cc1 (stereo not shown) [Example 7.4]
16,1300 nM,"CCNC(=O)C(C)c1ccc(C#Cc2ccc(C(C)C)cc2)cc1 (stereo not shown) [Example 7.1, N-Ethyl-2-[4-(4-isopropyl-phenylethynyl)-phenyl]-propionamide]"

row,IC50,Structure (SMILES)
1,1500 nM,CCNC(=O)C(C)c1ccc(C#Cc2cnc(N3CCCCC3)nc2)cc1 (stereo not shown) [Example 2.15]
2,230 nM,CCNC(=O)C(C)c1ccc(C#Cc2ccc(OCC3CCOC3)cc2)cc1 (stereo not shown) [Example 5.6]
3,270 nM,CCCOc1cc(C#Cc2ccc(C(C)C(=O)NCC)cc2)ccn1 (stereo not shown) [Example 7.10]
4,640 nM,CCNC(=O)C(C)c1ccc(C#Cc2cc(OCc3ccccc3)ncn2)cc1 (stereo not shown) [Example 7.31]
5,890 nM,CCNC(=O)C(C)c1ccc(C#Cc2ccc(OCC3CCOCC3)cc2)cc1 (stereo not shown) [Example 5.13]
6,540 nM,CCNC(=O)C(C)c1ccc(C#Cc2ccc(OCc3cnco3)cc2)cc1 (stereo not shown) [Example 5.21]
7,170 nM,CCCCOc1cc(C#Cc2ccc(C(C)C(=O)NCC)cc2)ccn1 (stereo not shown) [Example 7.43]
8,410 nM,CCNC(=O)C(C)c1ccc(C#Cc2cnc(NC(C)CC)nc2)cc1 (stereo not shown) [Example 2.6]
9,90 nM,CCNC(=O)C(C)c1ccc(C#Cc2ccc(OCC3CC3(F)F)cc2)cc1 (stereo not shown) [Example 5.20]
10,3700 nM,CCNC(=O)C(C)c1ccc(C#Cc2ccc(OCc3cncs3)cc2)cc1 (stereo not shown) [Example 5.10]
11,500 nM,CCNC(=O)C(C)c1ccc(C#Cc2ccc3c(c2)OCC3)cc1 (stereo not shown) [Example 7.20]
12,250 nM,CCNC(=O)C(C)c1ccc(C#Cc2ccc(SC)cc2)cc1 (stereo not shown) [Example 7.7]
13,200 nM,CCNC(=O)C(C)c1ccc(C#Cc2ccc(OCCC3CC3)cc2)cc1 (stereo not shown) [Example 5.5]
14,1000 nM,CCNC(=O)C(C)c1ccc(C#Cc2cnn(Cc3ccccc3)c2)cc1 (stereo not shown) [Example 7.12]
15,390 nM,CCNC(=O)C(C)c1ccc(C#Cc2cnc(NC3CC3)nc2)cc1 (stereo not shown) [Example 2.4]
16,330 nM,CCCc1ccc(C#Cc2ccc(C(C)C(=O)NCC)cc2)cc1 (stereo not shown) [Example 7.22]
